One assay deals with THP-1 cells. In words: Annexin V-FITC and PI staining, flow cytometry: apoptosis of THP-1 cells. It counts as cell-based, human. The protocol: (§1) Lymphocytes, monocytes and THP-1 cells (10^6 per test) were collected after incubation with LcrS, 3.125-25 μg mL^−1, for various times. After washing twice with PBS, the cells were resuspended in Annexin V binding buffer (10 mM HEPES-NaOH (pH 7.4), 140 mM NaCl, and 2.5 mM CaCl2). After centrifugation, the cells were incubated in 500 μl of the same buffer containing 1.25 it FITC-conjugated Annexin V (BD PharMingen, San Diego, Calif., USA) at room temperature for 15 min in the dark. Data acquisition and analysis were performed by the Becton-Dickinson FACSan flow cytometer (Franklin Lakes, N.J., USA) using CellQuest software (Becton-Dickinson, Oxford, UK). […]
as §1, with “500 W” for “500 μl”, “1.25 μl” for “1.25 it”
as §1, with “1.25 μl” for “1.25 it”
The TGF-β regulates a wide variety of biological functions including apoptosis. The TGF-β production was increasing in the LcrS5-30 treated THP-1 cells. It was reasonable to postulate that apoptosis might be triggered by TGF-β rather than the LcrS5-30. To confirm this assumption, a pharmacological inhibitor, SB431542, would be applied. The percentages of apoptotic cells in 10 ng mL^−1 and 1 ng mL^−1 TGF-β exposed preparations were 18.9±0.44% and 16.57±0.67%, respectively (FIG. 8B). Treatment with 12.5 μg mL^−1 or 25 μg mL^−1 of the LcrS5-30 induced dissimilar level of apoptosis of THP-1 cells that were 26.35±0.77% and 74.96±0.38%, respectively.
A general note: A flow cytometer gives signals particle by particle.

The subject of assay [1] is human peripheral blood T cells. The conditions noted are these: 18 h culture, 5 μg mL^−1; cited from earlier work.

For “TGF-β: anti-inflammatory cytokine applied to THP-1 cells at 1 and 10 ng mL^−1”, the “percentage of apoptotic cells” value with THP-1 cells (1 ng mL^−1, 24 h) was 16.57±0.67%; in the assay on THP-1 cells (10 ng mL^−1, 24 h), 18.9±0.44%. Besides, the “induced apoptosis in the presence of TGF-β inhibitor SB431542” value in the assay with THP-1 cells (One ng mL^−1, 1 μg mL^−1 SB431542, 24 h) is recorded as “SB431542 sensitive”.

As to infliximab, the “killing activity (as much as)” value in assay [1] is not above 50.6%.

For the compound `NC(=O)c1ccc(-c2nc(-c3ccc4c(c3)OCO4)c(-c3ccccn3)[nH]2)cc1` [SB-431542], in the assay on THP-1 cells (1 μg mL^−1 inhibitor, 24 h), the “blocking of TGF-β1-induced apoptosis” value is listed as “significantly blocked” and the blocking of apoptosis entry is “significantly blocked”.

The record behind these values is US20110034371A1, “L. CASEI RHAMNOSUS SECRETED FACTORS AND USE THEREOF” (priority 2009, published 2011).
